Experimental data from patent US12331048B2, “Pyrido-[3,4-d]pyridazine amine derivatives useful as NLRP3 inhibitors” (Ventus Therapeutics U.S., Inc., priority 2022, dated 2025).
pIC50: −log10 of the molar value. Read-outs that look alike come from different tables or passages of the source.

Tests used:
[1] = molecular target: T1, NLRP3 (Homo sapiens, UniProt Q96P20); experiment: Human whole blood (hWB) NLRP3 assay; format: cell-based; details: LPS priming 1 μg/ml, ATP activation, read-out: hWB IC50 (raw activity data)
T1 construct: endogenous in cells
Method: Heparin lithium coated tubes were used to collect blood from volunteers. Blood samples were distributed on 96 well plates using 90 μl per well. Priming was performed by adding 5 μl of LPS (O26:B6; Sigma L-2654) at a final concentration of 1 μg/ml for 4.5 hours in a humidified incubator with 37° C., 5% CO2. Thirty minutes prior to NLRP3 activation, 5 μl of a 20× compound solution or vehicle (2% DMSO) was added to each well and plates were incubated on a shaker (450 rpm) in a humidified incubator with 37° C., 5% CO2. Activation was then performed by adding 3.3 μl of a 31×ATP solution per well. At the end of the 30 minutes stimulation, the plates were centrifuged (800 g, 10 min. room temperature) and the plasma from each well was frozen at −80° C. […] levels in the supernatant were analyzed using a mesoscale discovery assay (MSD K151TUK) according to the manufacturers' instructions. Human whole blood was drawn from healthy volunteers after obtaining written informed consent.
Table D assigns each compound a code for potency in the human whole blood (hWB) NLRP3 Assay: A or B. According to the code. […] The corresponding raw activity data is also included.

[2] = Brain levels (kp and kpu,u) after oral administration; format: in vivo, CDI mice; details: mice, 20 mpk PO; for Kp at 24 h: whole brain AUC over 24 h divided by plasma AUC
Method: The in vivo total brain to plasma ratio was assessed in CDI mice after oral administration of the compound. Blood was collected at several timepoints up to 24 h, and transferred into plastic micro centrifuge tubes with EDTA-K2 as anticoagulant. Blood samples were centrifuged at 4000 g for 5 minutes at 4° C. to obtain plasma, then immediately frozen and stored at −75±15° C. prior to analysis. Animals were terminally anaesthetized with a rising concentration of CO2 gas at about 1 minute. At selected timepoints, whole brains were removed from the skull, rinsed in cold PBS to remove blood, dried with clean gauze, then frozen in liquid nitrogen and kept at −75±15° C. before analysis. At the time of analysis, brain samples were homogenized with PBS by tissue weight (g) to PBS volume (mL) ratio 1:3. Plasma and brain drug levels were quantified by LC/MS/MS on a AB Sciex Triple Quad 5500+ instrument, after separation on a HALO 160A ES-C18, 2.7 μm 2.1-50 mm column. Quantitation was performed using a calibration curve prepared in blank plasma or blank brain homogenate. The software WinNonlin (Phoenix™) was used for pharmacokinetic analysis from the concentrations versus time data, including the AUCinf and AUClast. The Kp ratio (total brain concentration over total plasma concentration) was calculated as (AUCtot,br)/(AUCtot,pl).
The unbound brain exposure was assessed as Kpuu, which is the free brain/free plasma concentration ratio (Cu,br/Cu,pl). The Cu,br/Cu,pl ratios were obtained from in vivo total brain to plasma ratios (Ctot,br/Ctot,pl) by using in vitro determined Fu,br and Fu,pl.
Plasma protein binding and brain homogenate protein binding were measured by equilibrium dialysis in a HTDialysis plate. The dialysis membranes were soaked in ultrapure water for 60 minutes to separate strips, then in 20% ethanol for 20 minutes, finally in dialysis buffer for 20 minutes. The dialysis set up was assembled according to the manufacturer's instruction. Each cell received 150 μL of plasma or brain homogenate spiked with 1 mM of compound, and dialyzed against an equal volume of dialysis buffer (PBS). The dialysis plate was sealed and incubated in an incubator at 37° C. with 5% CO2 at 100 rpm for 6 hours. At the end of incubation, compound concentration was measured in both chambers by LC-MS/MS on a Triple Quad™ 5500 from AB Inc after separation on a XSelect Hss T3 2.5μ (2.1×30 mm) column. Free fraction (Fu) was calculated as (Peak Area Ratio buffer chamber/Peak Area Ratio plasma chamber).
Kpuu was calculated as (AUCtot,br×Fu,br)/(AUCtot,pl×Fu,pl).
The below table also assigns each compound a code for kp and kpu,u values: A or B. According to the code. A represents a value of >0.3 and B represents a value of ≤0.3. […] The kpu,u was then calculated upon correcting this kp value with mouse plasma protein binding and mouse brain homogenates binding. A Kpu,u value >0.3 is brain penetrant, and Kpu,u value less than or equal to 0.3 is not brain penetrant. N.D.=not determined. The corresponding raw kp and kpu,u data is also included.

T1 sequence (Q96P20 whole entry): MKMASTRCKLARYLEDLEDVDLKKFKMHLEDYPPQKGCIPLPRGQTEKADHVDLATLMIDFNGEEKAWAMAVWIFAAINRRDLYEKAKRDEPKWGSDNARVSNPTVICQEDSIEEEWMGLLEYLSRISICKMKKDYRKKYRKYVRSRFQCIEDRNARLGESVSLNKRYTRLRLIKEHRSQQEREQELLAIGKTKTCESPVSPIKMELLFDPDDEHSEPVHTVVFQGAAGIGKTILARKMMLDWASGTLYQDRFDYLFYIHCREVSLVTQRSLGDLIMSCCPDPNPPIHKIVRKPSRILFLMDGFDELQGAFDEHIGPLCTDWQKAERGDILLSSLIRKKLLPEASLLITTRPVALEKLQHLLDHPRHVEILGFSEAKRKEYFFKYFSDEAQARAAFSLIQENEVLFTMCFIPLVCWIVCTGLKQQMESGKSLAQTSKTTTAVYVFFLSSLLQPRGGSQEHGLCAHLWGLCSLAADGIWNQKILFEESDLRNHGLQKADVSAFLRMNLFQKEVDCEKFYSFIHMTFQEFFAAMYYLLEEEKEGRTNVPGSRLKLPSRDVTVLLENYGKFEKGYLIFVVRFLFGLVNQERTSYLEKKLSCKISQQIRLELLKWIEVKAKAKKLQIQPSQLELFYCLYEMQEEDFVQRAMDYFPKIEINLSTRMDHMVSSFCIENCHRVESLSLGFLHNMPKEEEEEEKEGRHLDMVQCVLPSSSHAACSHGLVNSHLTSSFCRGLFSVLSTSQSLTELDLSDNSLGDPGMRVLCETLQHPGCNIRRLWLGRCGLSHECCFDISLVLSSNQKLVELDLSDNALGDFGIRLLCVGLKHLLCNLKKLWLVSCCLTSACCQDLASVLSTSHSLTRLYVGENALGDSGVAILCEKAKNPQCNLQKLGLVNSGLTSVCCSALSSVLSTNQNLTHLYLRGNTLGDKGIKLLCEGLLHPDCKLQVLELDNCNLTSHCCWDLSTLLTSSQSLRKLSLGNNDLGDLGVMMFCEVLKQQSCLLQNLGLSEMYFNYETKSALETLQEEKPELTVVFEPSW

| SMILES | pIC50 [1] | also measured |
| --- | --- | --- |
| CC1(C)C[C@H](Nc2nnc(-c3ccc(C(F)F)cc3O)c3ccncc23)CCO1 (single isomer, unassigned) [Compound 16B*] | 4.92 |  |
| CC1(C)C[C@H](Nc2nnc(-c3ccc(Cl)cc3O)c3ccncc23)CCO1 (single isomer, unassigned) [Compound 4B*] | 5.77 |  |
| CC1(C)COCC[C@H]1Nc1nnc(-c2ccc(Cl)cc2O)c2ccncc12 (single isomer, unassigned) [Compound 3B*] | 4.96 |  |
| Cc1ccc(-c2nnc(N[C@@H]3COC(C)(C)C3)c3cnccc23)c(O)c1F (single isomer, unassigned) [Compound 12B] | 5.49 |  |
| CC1(C)COCC[C@H]1Nc1nnc(-c2ccc(C(F)F)cc2O)c2ccncc12 (single isomer, unassigned) [Compound 17B] | 5.62 |  |
| Cc1ccc(-c2nnc(N[C@@H]3CCOC(C)(C)C3)c3cnccc23)c(O)c1 (single isomer, unassigned) [Compound 14B] | 5.44 |  |
| CC1(C)COC[C@H]1Nc1nnc(-c2ccc(Cl)cc2O)c2ccncc12 (single isomer, unassigned) [Compound 1B*] | 5.74 |  |
| Cc1ccc(-c2nnc(N[C@@H]3CCC(C)(C)OC3)c3cnccc23)c(O)c1 (single isomer, unassigned) [Compound 10B*] | 5.10 |  |
| C[C@H]1COCC[C@@H]1Nc1nnc(-c2ccc(Cl)cc2O)c2ccncc12 (single isomer, unassigned) [Compound 18C*] | 5.92 |  |
| CC1(C)C[C@H](Nc2nnc(-c3ccc(C(F)(F)F)cc3O)c3ccncc23)CCO1 (single isomer, unassigned) [Compound 11B*] | 5.00 |  |
| CN1CCO[C@H](CNc2nnc(-c3ccc(C(F)(F)F)cc3O)c3ccncc23)C1 (single isomer, unassigned) [Compound 6B*] | 5.90 |  |
| Cc1ccc(-c2nnc(N[C@@H]3CCOCC3(C)C)c3cnccc23)c(O)c1 (single isomer, unassigned) [Compound 13B] | 5.01 |  |
| CC1(C)C[C@H](Nc2nnc(-c3ccc(C(F)F)cc3O)c3ccncc23)CO1 (single isomer, unassigned) [Compound 23B] |  | Kp at 24 h ([2]; CDI, mouse, brain / plasma, po, 20 mg/kg, read-out: kp (code)): ≤ 0.3; Kp at 24 h ([2]; CDI, mouse, brain / plasma, po, 20 mg/kg, read-out: kp (raw)): 0.28; Kpu,u (unbound brain-to-plasma ratio) ([2]; CDI, mouse, brain / plasma, po, 20 mg/kg, kp corrected with mouse plasma protein binding and mouse brain homogenate binding): 0.09; kpu,u (code) ([2]; kp corrected with mouse plasma protein binding and mouse brain homogenate binding): B (B represents a value of ≤0.3) |
| CC1(C)COCC[C@H]1Nc1nnc(-c2ccc(C(F)(F)F)cc2O)c2ccncc12 (single isomer, unassigned) [Compound 15B] | 4.74 |  |
| Cc1ccc(-c2nnc(N[C@@H]3COC(C)(C)C3)c3cnccc23)c(O)c1 [Compound 5B, (S)-2-(4-((5,5-dimethyltetrahydrofuran-3-yl)amino)pyrido[3,4-d]pyridazin-1-yl)-5-methylphenol] | 6.68 |  |

Now from value to compound, other results behind:

| pIC50 [1] | SMILES | also measured |
| --- | --- | --- |
| 6.07 | C[C@H]1C[C@@H](Nc2nnc(-c3ccc(Cl)cc3O)c3ccncc23)CCO1 (single isomer, unassigned) [Compound 25B*] |  |
| 5.21 | C[C@@H]1COCC[C@@H]1Nc1nnc(-c2ccc(Cl)cc2O)c2ccncc12 (single isomer, unassigned) [Compound 18D*] |  |
| 5.92 | Oc1cc(C(F)(F)F)ccc1-c1nnc(N[C@@H]2COC3(CC3)C2)c2cnccc12 (single isomer, unassigned) [Compound 19B] |  |
| 5.47 | CC1(C)CC[C@@H](Nc2nnc(-c3ccc(C(F)F)cc3O)c3ccncc23)CO1 (single isomer, unassigned) [Compound 20B] |  |
| 5.23 | CC1(C)OCC[C@@H]1Nc1nnc(-c2ccc(C(F)(F)F)cc2O)c2ccncc12 (single isomer, unassigned) [Compound 22B] |  |
| 5.64 | Cc1cc(O)c(-c2nnc(N[C@@H]3COC(C)(C)C3)c3cnccc23)c(F)c1 (single isomer, unassigned) [Compound 21B] |  |
| 5.89 | Cc1cc(O)c(-c2nnc(N[C@@H]3COC(C)(C)C3)c3cnccc23)c(Cl)c1 (single isomer, unassigned) [Compound 26B*] |  |
